Reference: patent US11142525B2 (Pfizer Inc., priority 2018, dated 2021)
Like-named read-outs stand apart in the source and are kept apart here.

Assays:
[1] = target: human full-length recombinant HPK1 (Homo sapiens (Human), UniProt Q92918); experiment: HPK1 biochemical enzyme assay, microfluidic mobility shift assay (MSA); details: read-out: HPK1 Enzyme Assay_Ki
[2] = system: phospho-SLP-76 (Ser376) in Jurkat cells; experiment: Phospho-SLP-76 (Ser376) Homogeneous Time Resolved Fluorescence (HTRF) assay in Jurkat cells; assay type: cell-based; details: Homo sapiens, read-out: SLP76 Assay_IC50
How it was run: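 Jurkat cells pre-treated 30 min with compounds (10 μM to 0.1 nM, 11-point, 0.1% DMSO), then stimulated with 200 μg/mL F(ab)2-complexed anti-CD3 (UCHT1) for 15 min at 37 °C. Lysate phospho-SLP-76 detected by HTRF after overnight antibody incubation; IC50 from four-parameter fit.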

[3] = mobility shift assay, 75 μM ATP, Morrison equation, tight-binding competitive inhibition
[4] = 30 min pre-treatment, anti-CD3 stimulation 15 min, HTRF
[5] = Phospho-SLP-76 (Ser376) HTRF, anti-CD3 stimulation

human full-length recombinant HPK1, sequence (Q92918 whole entry): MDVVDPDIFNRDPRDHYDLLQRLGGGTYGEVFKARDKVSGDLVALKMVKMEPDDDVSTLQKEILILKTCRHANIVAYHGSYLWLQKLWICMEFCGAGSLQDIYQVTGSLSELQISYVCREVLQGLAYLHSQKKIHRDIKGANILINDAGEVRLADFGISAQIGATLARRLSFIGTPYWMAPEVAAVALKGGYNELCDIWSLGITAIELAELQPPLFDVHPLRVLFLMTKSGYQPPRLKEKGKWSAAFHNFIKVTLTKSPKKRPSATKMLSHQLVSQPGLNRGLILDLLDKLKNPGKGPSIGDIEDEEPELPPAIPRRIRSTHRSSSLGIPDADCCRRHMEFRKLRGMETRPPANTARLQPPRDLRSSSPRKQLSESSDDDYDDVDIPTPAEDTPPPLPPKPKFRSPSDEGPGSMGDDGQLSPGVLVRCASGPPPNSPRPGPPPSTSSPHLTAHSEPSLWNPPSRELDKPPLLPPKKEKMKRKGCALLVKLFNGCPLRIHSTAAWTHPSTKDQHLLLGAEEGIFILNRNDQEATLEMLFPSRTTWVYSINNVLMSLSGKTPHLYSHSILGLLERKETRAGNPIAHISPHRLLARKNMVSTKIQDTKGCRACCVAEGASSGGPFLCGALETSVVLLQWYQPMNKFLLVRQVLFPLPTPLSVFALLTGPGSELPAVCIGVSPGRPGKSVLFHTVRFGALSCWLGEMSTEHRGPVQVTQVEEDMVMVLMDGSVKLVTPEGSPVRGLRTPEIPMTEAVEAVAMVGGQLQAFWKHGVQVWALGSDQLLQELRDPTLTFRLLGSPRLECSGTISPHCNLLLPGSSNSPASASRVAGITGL

SMILES: CNCc1nc(N(C)C)cc2c1CN(c1cccc(N3C(=O)OC[C@@H]3C(F)F)n1)C2=O [Example 37, 2-{6-[(4R)-4-(difluoromethyl)-2-oxo-1,3-oxazolidin-3-yl]pyridin-2-yl}-6-(dimethylamino)-4-[(methylamino)methyl]-2,3-dihydro-1H-pyrrolo[3,4-c]pyridin-1-one]
- Ki [1, 3]: 1.5 nM
- IC50 [2, 4]: 487 nM

SMILES: CCN(c1cc2c(c(CNC)n1)CN(c1cccc(-c3nncn3C(C)C)n1)C2=O)C(C)C [Example 70, 6-[ethyl(propan-2-yl)amino]-4-[(methylamino)methyl]-2-{6-[4-(propan-2-yl)-4H-1,2,4-triazol-3-yl]pyridin-2-yl}-2,3-dihydro-1H-pyrrolo[3,4-c]pyridin-1-one]
- Ki ([1]; HPK1 mobility shift assay): 0.16 nM
- IC50 [2, 5]: 62 nM

SMILES: CNCc1nc(N(C)C)cc2c1CN(c1cccc(-c3nncn3CC3CC3)n1)C2=O [Example 21, 2-{6-[4-(cyclopropylmethyl)-4H-1,2,4-triazol-3-yl]pyridin-2-yl}-6-(dimethylamino)-4-[(methylamino)methyl]-2,3-dihydro-1H-pyrrolo[3,4-c]pyridin-1-one]
- Ki [1, 3]: 0.62 nM
- IC50 [2, 4]: 245 nM

SMILES: C[C@@H]1CC[C@@H](C)N1c1cc2c(c(CN)n1)CN(c1cccc(N3C(=O)OC[C@@H]3C)n1)C2=O [Example 137, 4-(aminomethyl)-6-[(2R,5R)-2,5-dimethylpyrrolidin-1-yl]-2-{6-[(4S)-4-methyl-2-oxo-1,3-oxazolidin-3-yl]pyridin-2-yl}-2,3-dihydro-1H-pyrrolo[3,4-c]pyridin-1-one]
- Ki ([1]; HPK1 mobility shift assay): 0.28 nM
- IC50 [2, 5]: 76 nM

SMILES: Cc1nnc(-c2cccc(N3Cc4c(cc(N5[C@H](C)CC[C@H]5C)nc4CN)C3=O)n2)n1C(C)C [Example 169]
- Ki ([1]; HPK1 mobility shift assay): 0.95 nM
- IC50 [2, 5]: 179 nM

SMILES: CC1(c2cc3c(c(CN)n2)CN(c2cccc(N4C(=O)OC[C@@H]4CF)n2)C3=O)CC1 [Example 85, 4-(aminomethyl)-2-{6-[(4R)-4-(fluoromethyl)-2-oxo-1,3-oxazolidin-3-yl]pyridin-2-yl}-6-(1-methylcyclopropyl)-2,3-dihydro-1H-pyrrolo[3,4-c]pyridin-1-one]
- Ki ([1]; HPK1 mobility shift assay): 1.11 nM
- IC50 [2, 5]: 345 nM

SMILES: CC[C@H](C)n1cnnc1-c1cccc(N2Cc3c(cc(N(C)CC)nc3CNC)C2=O)n1 [Example 173]
- Ki ([1]; HPK1 mobility shift assay): 0.06 nM
- IC50 [2, 5]: 43 nM

SMILES: CCN(CC)c1cc2c(c(CN)n1)CN(c1cccc(-c3nncn3CC)n1)C2=O [Example 75, 4-(aminomethyl)-6-(diethylamino)-2-[6-(4-ethyl-4H-1,2,4-triazol-3-yl)pyridin-2-yl]-2,3-dihydro-1H-pyrrolo[3,4-c]pyridin-1-one]
- Ki ([1]; HPK1 mobility shift assay): 0.52 nM
- IC50 [2, 5]: 118 nM

SMILES: CCN(CC)c1cc2c(c(CNC)n1)CN(c1cccc(-c3nncn3C(C)C)n1)C2=O [Example 4, 6-(diethylamino)-4-[(methylamino)methyl]-2-{6-[4-(propan-2-yl)-4H-1,2,4-triazol-3-yl]pyridin-2-yl}-2,3-dihydro-1H-pyrrolo[3,4-c]pyridin-1-one]
- Ki [1, 3]: 0.39 nM
- IC50 [2, 4]: 106 nM

SMILES: CCN(C)c1cc2c(c(CN)n1)CN(c1cccc(-c3nncn3CC)n1)C2=O [Example 60, 4-(aminomethyl)-6-[ethyl(methyl)amino]-2-[6-(4-ethyl-4H-1,2,4-triazol-3-yl)pyridin-2-yl]-2,3-dihydro-1H-pyrrolo[3,4-c]pyridin-1-one]
- Ki [1, 3]: 0.17 nM
- IC50 [2, 4]: 70 nM

SMILES: CC[C@@H](CC(F)(F)F)n1cnnc1-c1cccc(N2Cc3c(cc(N(C)C)nc3CNC)C2=O)n1 (single isomer, unassigned) [Example 18, 6-(dimethylamino)-4-[(methylamino)methyl]-2-(6-{4-[(3ξ)-1,1,1-trifluoropentan-3-yl]-4H-1,2,4-triazol-3-yl}pyridin-2-yl)-2,3-dihydro-1H-pyrrolo[3,4-c]pyridin-1-one]
- Ki [1, 3]: < 0.05 nM
- IC50 [2, 4]: 101 nM

SMILES: CCCn1c(C)nnc1-c1cccc(N2Cc3c(cc(N(C)CC)nc3CNC)C2=O)n1 [Example 130, 6-[ethyl(methyl)amino]-4-[(methylamino)methyl]-2-[6-(5-methyl-4-propyl-4H-1,2,4-triazol-3-yl)pyridin-2-yl]-2,3-dihydro-1H-pyrrolo[3,4-c]pyridin-1-one]
- Ki ([1]; HPK1 mobility shift assay): 0.78 nM
- IC50 [2, 5]: 201 nM

SMILES: CCN(CC)c1cc2c(c(CNC)n1)CN(c1cccc(-c3nncn3CC)n1)C2=O [Example 9, 6-(diethylamino)-2-[6-(4-ethyl-4H-1,2,4-triazol-3-yl)pyridin-2-yl]-4-[(methylamino)methyl]-2,3-dihydro-1H-pyrrolo[3,4-c]pyridin-1-one]
- Ki [1, 3]: 0.27 nM
- IC50 [2, 4]: 88 nM

SMILES: Cc1nnc(-c2cccc(N3Cc4c(cc(N5CCC[C@@H]5C)nc4CN)C3=O)n2)n1C(C)C [Example 162]
- Ki ([1]; HPK1 mobility shift assay): 0.76 nM
- IC50 [2, 5]: 136 nM

SMILES: CNCc1nc(C)cc2c1CN(c1cccc(-c3nncn3C(C)C)n1)C2=O [Example 47, 6-methyl-4-[(methylamino)methyl]-2-{6-[4-(propan-2-yl)-4H-1,2,4-triazol-3-yl]pyridin-2-yl}-2,3-dihydro-1H-pyrrolo[3,4-c]pyridin-1-one]
- Ki [1, 3]: 7.1 nM
- IC50 [2, 4]: 1520 nM

SMILES: CNCc1nc(C2(C)CC2)cc2c1CN(c1ccc(F)c(-c3nncn3C(C)C)n1)C2=O [Example 83, 2-{5-fluoro-6-[4-(propan-2-yl)-4H-1,2,4-triazol-3-yl]pyridin-2-yl}-4-[(methylamino)methyl]-6-(1-methylcyclopropyl)-2,3-dihydro-1H-pyrrolo[3,4-c]pyridin-1-one]
- Ki ([1]; HPK1 mobility shift assay): 35.2 nM
- IC50 [2, 5]: 6640 nM
